Results: US20180064153A1, “Methods of Protecting Against Brain Injury” (priority 2016, published 2018)
Like-named read-outs stand apart in the source and are kept apart here.

Tests used:
[1] = test system: rats exposed to a low-pressure blast wave; conditions: 30 days supplementation
[2] = test system: rats exposed to a low-pressure blast wave; conditions: 1 h following blast
Description: Neurological assessment using the neurological severity score (NSS) was performed one hour following the blast and daily thereafter. […] The NSS was performed 1-h following the initial blast wave exposure. NSS assesses somatomotor and somatosensory function by evaluating the animals' activities in motor, sensory, reflexes, beam walking, and beam balancing tasks. Specifically, the following were assessed: ability to exit from a circle (3-point scale), gait on a wide surface (3-point scale), gait on a narrow surface (4-point scale), effort to remain on a narrow surface (2-point scale), reflexes (5-point scale), seeking behavior (2-point scale), beam walking (3-point scale), and beam balance (3- point scale). An observer, who was blind to the different treatment groups, tested the animals.

[3] = test system: brain-derived neurotrophic factor (BDNF); conditions: day 16 post-blast
neuropeptide Y (NPY) = conditions: day 16 post-blast
[4] = test system: glial fibrillary acidic protein (GFAP); conditions: day 16 post-blast
tau protein = conditions: day 16 post-blast; for Tau protein expression, CTL compared with BA: p<0.001
carnosine = conditions: for Brain Carnosine Concentration: mean ± SD
histidine = conditions: for Brain Histidine Concentration: mean ± SD
[5] = individuals taking β-alanine as a free amino acid; cited from earlier work

Q: With NCCC(=O)O [BA, beta-alanine] as the molecule, how does the “prevalence of animals demonstrating the comorbid pattern of mTBI+PTSD” value ([1]; 2/49) read?
A: 4%

Q: And the “prevalence of PTSD” value ([1]; 5/49)?
A: 10.2%

Q: And the “prevalence of animals demonstrating mTBI” value ([1]; 13/49)?
A: 26.5%

Q: And the “NSS: reflex responses, motor coordination, motor strength, sensory function, BA vs PL” value [2]?
A: No significant differences

Q: What about the “BDNF expression, BA compared with PL” value ([3]; CA1 subregion, p=0.009) of the same molecule?
A: significantly higher

Q: What about the “BDNF expression, CTL compared with BA” value ([3]; CA1 subregion, p=0.025) of the same molecule?
A: significantly higher

Q: And the “BDNF expression, CTL compared with BA” value ([3]; CA3 subregion, p=0.005)?
A: significantly greater

Q: And the “BDNF expression, BA compared with PL” value ([3]; CA3 subregion, p=0.110)?
A: No difference

Q: And the “BDNF expression, CTL compared with BA” value ([3]; DG subregion, p=0.005)?
A: significantly greater

Q: And the “BDNF expression, BA compared with PL” value ([3]; DG subregion, p=0.136)?
A: no differences

Q: What about the “NPY expression, CTL compared with BA” value (neuropeptide Y (NPY); CA1 subregion, p=0.011) of the same molecule?
A: significantly higher

Q: And the “NPY expression, BA compared with PL” value (neuropeptide Y (NPY); CA1 subregion, p=0.196)?
A: No significant differences

Q: What about the “NPY expression, CTL compared with BA” value (neuropeptide Y (NPY); CA3 subregion, p=0.032) of the same molecule?
A: significantly greater

Q: What about the “NPY expression, BA compared with PL” value (neuropeptide Y (NPY); CA3 subregion, p=0.480) of the same molecule?
A: no differences

Q: And the “NPY expression, CTL compared with BA” value (neuropeptide Y (NPY); DG subregion, p=0.011)?
A: significantly greater

Q: And the “NPY expression, BA compared with PL” value (neuropeptide Y (NPY); DG subregion, p=0.074)?
A: trended (p=0.074) towards a higher response

Q: What about the “GFAP expression, PL compared with BA” value ([4]; CA1 subregion, p=0.001) of the same molecule?
A: significantly greater

Q: And the “GFAP expression, CTL compared with BA” value ([4]; CA1 subregion, p=0.126)?
A: No differences

Q: And the “GFAP expression, PL compared with BA” value ([4]; CA3 subregion, p=0.021)?
A: significantly greater

Q: And the “GFAP expression, BA compared with CTL” value ([4]; CA3 subregion, p=0.876)?
A: no differences

Q: And the “GFAP expression, comparison between BA, PL and CTL” value ([4]; DG subregion, ANOVA p=0.387)?
A: no difference

Q: And the “Tau protein expression, CTL compared with BA” value (tau protein; CA1 subregion)?
A: significantly lower

Q: What about the “Tau protein expression, BA compared with PL” value (tau protein; CA1 subregion, p=0.700) of the same molecule?
A: No significant differences

Q: What about the “Tau protein expression, CTL compared with BA” value (tau protein; CA3 subregion) of the same molecule?
A: significantly lower

Q: What about the “Tau protein expression, BA compared with PL” value (tau protein; CA3 subregion, p=1.000) of the same molecule?
A: no differences

Q: What about the “Tau protein expression, CTL compared with BA” value (tau protein; DG subregion) of the same molecule?
A: significantly lower

Q: What about the “Tau protein expression, BA compared with PL” value (tau protein; DG subregion, p=0.557) of the same molecule?
A: no differences observed

Q: What about the “Brain Carnosine Concentration” value (carnosine; Amygdala) of the same molecule?
A: 23.2 ± 18.4 mM

Q: And the “Brain Carnosine Concentration” value (carnosine; Cortex)?
A: 364 ± 178 mM

Q: What about the “Brain Carnosine Concentration” value (carnosine; Hippocampus) of the same molecule?
A: 22.4 ± 11.3 mM

Q: What about the “Brain Carnosine Concentration” value (carnosine; Hypothalamus) of the same molecule?
A: 22.7 ± 26.2 mM

Q: And the “Brain Carnosine Concentration” value (carnosine; Thalamus)?
A: 50.9 ± 33.9 mM

Q: And the “carnosine content, BA compared to PL” value (carnosine; amygdala, p=0.061)?
A: Trends towards a difference

Q: What about the “carnosine content higher than in animals that consumed the vehicle” value (carnosine; average across the five brain regions) of the same molecule?
A: 79%

Q: And the “carnosine content, BA compared to PL” value (carnosine; cerebral cortex, p=0.048)?
A: significantly higher

Q: And the “carnosine content, BA compared to PL” value (carnosine; hippocampus, p=0.058)?
A: Trends towards a difference

Q: And the “Brain Histidine Concentration” value (histidine; Amygdala)?
A: 2619 ± 1467 mM

Q: What about the “Brain Histidine Concentration” value (histidine; Cortex) of the same molecule?
A: 5669 ± 4471 mM

Q: What about the “Brain Histidine Concentration” value (histidine; Hippocampus) of the same molecule?
A: 5632 ± 4995 mM

Q: And the “Brain Histidine Concentration” value (histidine; Hypothalamus)?
A: 1862 ± 1794 mM

Q: And the “Brain Histidine Concentration” value (histidine; Thalamus)?
A: 26025 ± 21754 mM

Q: And the “histidine content higher than PL” value (histidine; across the five regions of the brain)?
A: 86%

Q: And the “histidine content, BA compared to PL” value (histidine; cerebral cortex, p=0.070)?
A: Trends towards a higher histidine content

Q: What about the “histidine content, BA compared to PL” value (histidine; hippocampus, p=0.053) of the same molecule?
A: Trends towards a higher histidine content

Q: What about the “histidine content, BA compared to PL” value (histidine; thalamus, p=0.108) of the same molecule?
A: Trends towards a higher histidine content

Q: And the “duration of flushing/tingling (paraesthesia) of the skin” value [5]?
A: less than 60 minutes
